Earlier results on four compounds are cited in patent publication US20070065449A1 (priority 2005, published 2007).

Data set [1] has as its system soft tissue sarcomas.
For data set [2], the system named is advanced soft tissue sarcomas.
Data set [3] has as its system pretreated adult soft tissue sarcoma.
In data set [4] the test system is advanced soft tissue sarcomas. The settings on record: previously untreated advanced soft tissue sarcomas.
The test system of data set [5] is leiomyosarcoma of the uterus. The settings on record: 48 evaluable patients.
Data set [6] relates to angiosarcoma of the scalp or face. The settings on record: four partial and four clinical complete responses.
Data set [7] has as its system tubulin. The settings on record: read-out: concentration required to provide 50% inhibition of microtubule disassembly (IC50).
Data set [8] relates to soft tissue sarcoma. The settings on record: 29 evaluable patients, previously treated with chemotherapy.
Data set [9] has as its system soft tissue sarcoma. The following applies: 27 evaluable patients, previously treated with chemotherapy.
The test system of data set [10] is soft tissue sarcomas. The following applies: previously untreated patients; 95% CI 0.1, 29.
Experiment in data set [11]: not given
The source holds these as a separate data set.

For data set [12] the following is noted: in vivo.
Experiment in data set [13]: not given
The source holds these as a separate data set.

Each structure is given as a SMILES string. Structures can show the parent of a compound that is named as a salt. Where two headings read alike, the source gives them in different places.

On to `Nc1ccn([C@@H]2O[C@H](CO)[C@@H](O)C2(F)F)c(=O)n1` [gemcitabine], for which the “objective responses in patients with GIST” value in data set [1] (17 patients with GIST) is reported as “no objective responses”. The “median duration of remission” value in [1] (in vivo) is reported as 3.5 months. In [1] (patients with soft tissue sarcomas), the remission rate is on record as 18%. Besides, the “duration of a partial response in a patient” value in data set [2] (in vivo) is recorded as 8 months. Also, the rate of remissions in [2] (previously untreated patients, 90% CI 0, 18) was 4%. Besides, in [3] (15 assessable patients), the disease stabilization was 47%. Further, the “progression-free survival rate at 6 months” value in [3] (calculated, 95% CI 0, 30.5) is given as 13.3%. The “progression-free survival rate at 3 months” value in [3] (calculated, 95% CI 21.4, 71.9) is recorded as 46.7%. For the same compound, the remission rate in data set [3] (gemcitabine 1.0 g/m^2 days 1, 8, 15 every 4 weeks, 15 assessable patients) was 6%. In data set [3] (range 1-18+), the median progression-free survival is recorded as 3 months. Besides, where the note is “6 of 2429 patients”, the “hemolytic uremic syndrome (HUS)” value was 0.25%. Further, under “human, in vivo”, the edema is on record as 13%, the flu syndrome is 19%, the generalized edema is given as below 1% and the “overall incidence of fever” value is reported as 41%. Under “human, in vivo”, the peripheral edema is reported as 20%, the principal dose-limiting toxicity result is reported as “Myelosuppression” and the rash is recorded as 30%. Moreover, the nausea and vomiting (usually mild to moderate severity) is listed as 69%.

Turning to `CC(=O)O[C@H]1C(=O)[C@@]2(C)[C@H]([C@H](OC(=O)c3ccccc3)[C@]3(O)C[C@H](OC(=O)[C@H](O)[C@@H](NC(=O)c4ccccc4)c4ccccc4)C(C)=C1C3(C)C)[C@]1(OC(C)=O)CO[C@@H]1C[C@@H]2O` [paclitaxel], the response rate in data set [4] was 12.5%. For the same compound, in [5], the “complete or partial response” value was 8.4% and the stable disease is on record as 22.9%. Also, the patients responding entry in data set [6] is “eight of nine”. Moreover, in [7], the IC50 is 400 nM.

`CC(=O)O[C@@]12CO[C@@H]1C[C@H](O)[C@@]1(C)C(=O)[C@H](O)C3=C(C)[C@@H](OC(=O)[C@H](O)[C@@H](NC(=O)OC(C)(C)C)c4ccccc4)C[C@@](O)([C@@H](OC(=O)c4ccccc4)[C@H]21)C3(C)C` [docetaxel]: the partial responses in [8] is 17%; in data set [9], 15%. Further, in [10], the response rate was 5.9%. Besides, in [7], the IC50 was 200 nM. The “storage time of initial diluted solution” value in data set [11] (10 mg docetaxel/ml, refrigerator or room temperature) is at most 8 h. Further, the “stability of infusion solution” value in data set [11] (stored between 2 and 25° C.) is 4 h. The “major toxic effect which limits dose” value in data set [12] was “neutropenia”.

For `Nc1ccn([C@@H]2O[C@H](CO)[C@@H](O)C2(F)F)c(=O)n1` [Gemcitabine HCl, 2′-deoxy-2′,2′-difluorocytidine monohydrochloride ((beta)-isomer)], in data set [13], the “solubility in ethanol and polar organic solvents” value is on record as “practically insoluble”; the solubility in methanol entry is reported as “slightly soluble”; the solubility in water entry was “soluble”.
